24 compounds from patent US20240408064A1, “RAS INHIBITORS, COMPOSITIONS AND METHODS OF USE THEREOF” (GENETOLEAD INC., priority 2021, published 2024) can be followed below.

Assay [1] addresses T1, HRas^G12V (Homo sapiens (Human), UniProt P01112, G12V). In words: 19F DLB (ligand-observed 19F NMR) score. It is filed as binding. Set-up: scale not given here. An outline of the steps: (§1)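 In the T2-CPMG experiment, echo spacing was 1 ms and total delays ranged over eight values from 1 to 800 ms. Both scores come from 600 MHz NMR of 50 μM HRas G12V mixed with fragment pools at 240 μM each, in phosphate buffer pH 7.4 with NaCl, MgCl2 and TCEP-d16. Ligand-observed 19F spectra were recorded with 1H decoupling, 64 scans and a 5 s relaxation delay.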

The target of assay [2] is T1, HRas^G12V. In words: 19F T2-CPMG NMR score. It is filed as binding. An outline of the steps:
as §1

In assay [3] the target is T1, HRas^G12V. In words: Overall binding/activity in the various assays (NMR consensus binding). As to the method:
Since the fragment library was curated using phosphate buffer, 25 mM sodium phosphate pH 7.4, 150 mM NaCl, 5 mM MgCl2, 1 mM TCEP-d16, 10% D2O Fresh TCEP was used for experiments. Screening was performed using ^1H-decoupled 1D ^19F experiment Bruker experiment (zgfhigqn.2) with 64 scans and a relaxation delay of 5 seconds. 50 μM HRas^G12V and 240 μM of each fragment in pools (mixtures) were used.
Hit confirmation was performed using the same ^19F experiment as the screen. Ligand-observed 1D ^1H, protein-observed 1D ^1H, ^1H T2-CPMG as well as Saturation Transfer Difference (STD) experiments were also run on the same samples. Ligand-observed 1D ^1H was run using the standard Bruker sequence with excitation sculpting (zgesgp) with a relaxation delay of 10 seconds and 16 scans per spectrum. Protein-observed 1D ^1H was performed using the same sequence with a relaxation delay of 1 second and 256 scans in order to increase the signal-to-noise of the protein resonances, while keeping the experimental time relatively short. The ^1H T2-CPMG experiment employed a modified version of the Bruker 1D ^1H zgesgp experiment with the addition of a CPMG pulse train after the first 90° excitation pulse. Total duration for each spin echo was fixed at 1 ms (τ=500 μs), while the number of echoes in the pulse train was varied according to the total time (T). The number of scans for each spectrum was 4 and eight delay times were run on each sample, ranging from 1 ms to 800 ms.
STD experiments consisted of two independent spectra with offsets of 0 ppm (on resonance) and −20 ppm (off resonance). […] 160 scans were acquired for each spectrum.
The results obtained with the compounds in the various assays described above are depicted in Table 21.
Because of its power to probe the intrinsically weak interactions (Kd) between targets and low-molecular weight fragments, NMR fragment-based lead discovery (FBLD) is a very useful biophysical method in early stage drug discovery, especially for challenging target proteins; including those with shallow binding pockets. Since FBLD screens are performed using low-molecular weight compounds (fragments) with lower structural complexity, the same chemical space can be covered using a smaller number of drug-like fragments versus use of large libraries of higher-molecular weight lead-like compounds as in high throughput screening (HTS) campaigns. Therefore, FBLD has a much higher hit rate than HTS using only several hundred to several thousand compounds in comparison with approximately 1 million compounds for HTS. Also, the small size of the compounds screened in FBLD means a better chance to fully match the interactions with small or transient pockets within the target protein, where these less tractable pockets cannot be accessed with standard classical HTS methods. […] We expect this methodology to be more advantageous than classical HTS methods for expediting the time from hit to lead (H2L) and allows for rapid access to high quality leads with lower attrition rates in subsequent lead optimization (LO) campaigns toward pre-clinical candidate selection. FBLD screening by NMR involves a “consensus binding” approach where several distinct NMR experiments (DLB, STD, CPMG) are applied along with a free-state aggregation detection method (T2-CPMG) to rank the compounds for their affinity to the receptor (HRAS in this case) whilst simultaneously monitoring the solution behavior and critical quality attributes of each compound. The latter helps to eliminate artifact binders which are highly problematic. We performed a fluorine screen involving 461 compounds that were derived from a highly curated fragment library. Moreover, two-dimensional ^15N HSQC NMR was also used to validate ligand-binding sites on the target protein. In addition, we employed protein-detected biophysical measurements were employed to determine fragment binding affinities to the target protein (Kd) by HSQC NMR. […]

T1 sequence (P01112 1-166 G12V): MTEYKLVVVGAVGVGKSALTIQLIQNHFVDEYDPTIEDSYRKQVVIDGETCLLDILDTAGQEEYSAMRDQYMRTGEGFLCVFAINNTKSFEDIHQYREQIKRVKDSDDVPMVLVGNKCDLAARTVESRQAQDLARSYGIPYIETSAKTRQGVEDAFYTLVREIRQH

In the case of `CS(=O)(=O)NCCC(=O)NCCc1c[nH]c2cc(F)ccc12` [Compound 10082, N-(2-(6-fluoro-1H-indol-3-yl)ethyl)-3-(methylsulfonamido)propanamide], at HRas^G12V [1], the “19F DLB Score” value is given as 1.22. On HRas^G12V [2], the “19F T2-CPMG Score” value is 2.61. Moreover, the “Binding to HRas^G12V (in words)” value on HRas^G12V [3] is on record as “low or no binding”.
In the same order, the values of `C[C@@H](NC(=O)Cc1c[nH]c2cc(F)ccc12)C(=O)O` [Compound 10083] are 1.14, 2.8 and “low or no binding”.
In the same order, the values of `C[C@H](NC(=O)Cc1c[nH]c2cc(F)ccc12)C(=O)O` [Compound 10084] are 1.09, 1.7 and “low or no binding”.
The like results for `CC(=O)N1CC[C@@H](NC(=O)Cc2c[nH]c3cc(F)ccc23)C1` [Compound 10092, (R)—N-(1-acetylpyrrolidin-3-yl)-2-(6-fluoro-1H-indol-3-yl) acetamide] were, in that order, 1.46, 7.82 and “low or no binding”.
Turning to `CCOC(=O)C(CC(C)C)NC(=O)Cc1c[nH]c2cc(F)ccc12` (stereo not drawn) [Compound 10093], at HRas^G12V [1], the “19F DLB Score” value worked out at 1.35. Besides, the “19F T2-CPMG Score” value at HRas^G12V [2] was 4.89. Besides, the “Binding to HRas^G12V (in words)” value at HRas^G12V [3] is on record as “low or no binding”.
In the same order, the values of `CCOC(=O)C(Cc1ccccc1)NC(=O)Cc1c[nH]c2cc(F)ccc12` (stereo not drawn) [Compound 10096] are 1.14, 2.11 and “low or no binding”.
In the case of `CCOC(=O)C(Cc1ccc(O)cc1)NC(=O)Cc1c[nH]c2cc(F)ccc12` (stereo not drawn) [Compound 10098], the “19F DLB Score” value at HRas^G12V [1] turned out to be 1.38. In addition, the “19F T2-CPMG Score” value on HRas^G12V [2] came out at 5.94. The “Binding to HRas^G12V (in words)” value on HRas^G12V [3] is listed as “low or no binding”.
The like results for `CCOC(=O)C(CC(N)=O)NC(=O)Cc1c[nH]c2cc(F)ccc12` (stereo not drawn) [Compound 10101] were, in that order, 1.12, 1.74 and “low or no binding”.
In the same order, the values of `O=C(O)C1CCN1C(=O)Cc1c[nH]c2cc(F)ccc12` (stereo not drawn) [Compound 10102, 1-(2-(6-fluoro-1H-indol-3-yl)acetyl) azetidine-2-carboxylic acid] are 1.06, 2.65 and “low or no binding”.
On to `CCOC(=O)C(Cc1c[nH]cn1)NC(=O)Cc1c[nH]c2cc(F)ccc12` (stereo not drawn) [Compound 10104], for which the “19F DLB Score” value at HRas^G12V [1] was 1.14. In addition, the “19F T2-CPMG Score” value on HRas^G12V [2] came out at 2.49. For the same compound, at HRas^G12V [3], the “Binding to HRas^G12V (in words)” value is on record as “low or no binding”.
`CCOC(=O)C(CO)NC(=O)Cc1c[nH]c2cc(F)ccc12` (stereo not drawn) [Compound 10105]: on HRas^G12V [1], the “19F DLB Score” value worked out at 1.2. Also, the “19F T2-CPMG Score” value at HRas^G12V [2] came to 2.44. Also, the “Binding to HRas^G12V (in words)” value at HRas^G12V [3] is “low or no binding”.
`O=C(O)CN1CCC(NC(=O)Cc2c[nH]c3cc(F)ccc23)CC1` [Compound 10108, 2-(4-(2-(6-fluoro-1H-indol-3-yl)acetamido)piperidin-1-yl)acetic acid]: the “19F DLB Score” value at HRas^G12V [1] amounted to 1.34. The “19F T2-CPMG Score” value at HRas^G12V [2] is 5.72. Moreover, the “Binding to HRas^G12V (in words)” value on HRas^G12V [3] is “low or no binding”.
In the same order, the values of `O=C(O)C1CN(C(=O)Cc2c[nH]c3cc(F)ccc23)C1` [Compound 10113, 1-(2-(6-fluoro-1H-indol-3-yl)acetyl) azetidine-3-carboxylic acid] are 1.29, 2.55 and “low or no binding”.
`CN1CCC(NC(=O)Cc2c[nH]c3cc(F)ccc23)C(C(=O)O)C1` (stereo not drawn) [Compound 10118, 4-(2-(6-fluoro-1H-indol-3-yl)acetamido)-1-methylpiperidine-3-carboxylic acid]: at HRas^G12V [1], the “19F DLB Score” value amounted to 1.15. At HRas^G12V [2], the “19F T2-CPMG Score” value is listed as 2.67. Also, the “Binding to HRas^G12V (in words)” value at HRas^G12V [3] is recorded as “low or no binding”.
For the compound `CN1CCC(NC(=O)Cc2c[nH]c3cc(F)ccc23)C(C(=O)O)C1` (stereo not drawn) [Compound 10119, 4-(2-(6-fluoro-1H-indol-3-yl)acetamido)-1-methylpiperidine-3-carboxylic acid], the “19F DLB Score” value on HRas^G12V [1] amounted to 0.87. In addition, the “19F T2-CPMG Score” value at HRas^G12V [2] was −0.46. In addition, on HRas^G12V [3], the “Binding to HRas^G12V (in words)” value is on record as “low or no binding”.
In the same order, the values of `CCOC(=O)[C@H]1COCCN1C(=O)Cc1c[nH]c2cc(F)ccc12` [Compound 10121] are 1.26, 5.23 and “low or no binding”.
`O=C(O)[C@@H]1CCCCN1C(=O)Cc1c[nH]c2cc(F)ccc12` [Compound 10123]: the “19F DLB Score” value on HRas^G12V [1] amounted to 1.5. For the same compound, the “19F T2-CPMG Score” value at HRas^G12V [2] is on record as 2.37. Further, the “Binding to HRas^G12V (in words)” value on HRas^G12V [3] was “low or no binding”.
In the same order, the values of `O=C(O)CC1CCN(C(=O)Cc2c[nH]c3cc(F)ccc23)CC1` [Compound 10127] are 1.3, 4.35 and “low or no binding”.
The like results for `O=C(O)[C@H]1CCCN(C(=O)Cc2c[nH]c3cc(F)ccc23)C1` [Compound 10133, (S)-1-(2-(6-fluoro-1H-indol-3-yl)acetyl)piperidine-3-carboxylic acid] were, in that order, 1.63, 2.85 and “low or no binding”.
The like results for `O=C(Cc1c[nH]c2cc(F)ccc12)N1CCOC(c2ccccc2)C1` (stereo not drawn) [Compound 10136] were, in that order, 1.55, 6.73 and “low or no binding”.
As for `CCOC(=O)[C@@H]1COCCN1C(=O)Cc1c[nH]c2cc(F)ccc12` [Compound 10140, ethyl (S)-4-(2-(6-fluoro-1H-indol-3-yl)acetyl) morpholine-3-carboxylate], the “19F DLB Score” value at HRas^G12V [1] was found to be 1.49. Further, the “19F T2-CPMG Score” value on HRas^G12V [2] was 5.98. The “Binding to HRas^G12V (in words)” value on HRas^G12V [3] is on record as “low or no binding”.
The like results for `COC(=O)C1CN(C(C)C)CCC1NC(=O)Cc1c[nH]c2cc(F)ccc12` (stereo not drawn) [Compound 10141, methyl 4-(2-(6-fluoro-1H-indol-3-yl)acetamido)-1-isopropylpiperidine-3-carboxylate] were, in that order, 1.21, 3.15 and “low or no binding”.
In the same order, the values of `COC(=O)C1CN(C)CCC1NC(=O)Cc1c[nH]c2cc(F)ccc12` (stereo not drawn) [Compound 10142, Methyl 4-(2-(6-fluoro-1H-indol-3-yl)acetamido)-1-methylpiperidine-3-carboxylate] are 1.11, 2.43 and “low or no binding”.
The like results for `CC1CN(C(=O)Cc2cc3ccc(F)cc3[nH]2)C1` [Compound 10143, 2-(6-fluoro-1H-indol-2-yl)-1-(3-methylazetidin-1-yl)ethan-1-one] were, in that order, 0.89, 0.9 and “low or no binding”.
